Structures can show the parent of a compound that is named as a salt.
System: MTT (mouse pheochromocytoma)
Experiment: IC50 of cell viability (ATP content)
Settings: (24 or 48 h)
Summary of the method: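 Library compounds in DMSO (23 nl by pintool, 8 concentrations, final 0.5 nM to 46 µM) were applied for 24 or 48 hrs to MTT mouse pheochromocytoma cells that had been cultured overnight at 37°C, 5% CO2 in white 1536-well plates. Cell viability was measured by CellTiter-Glo ATP luminescence, read after 15 minutes, with positive-control wells set at 100% and DMSO wells at 0%. A four-parameter logistic fit of the normalised signals yielded the IC50.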

Structure (SMILES) | IC50 of cell viability [µM]
COc1nccnc1N[S+](=O)([O-])c1ccc(N)cc1 [Sulfalene] | > 46
Cc1ccnc(N[S+](=O)([O-])c2ccc(N)cc2)n1 [Sulfamerazine] | > 46
COc1cnc(N[S+](=O)([O-])c2ccc(N)cc2)nc1 [Sulfameter] | > 46
Cc1cc(C)nc(N[S+](=O)([O-])c2ccc(N)cc2)n1 [Sulfamethazine] | > 46
Cc1nnc(N[S+](=O)([O-])c2ccc(N)cc2)s1 [Sulfamethizole] | > 46
Cc1cc(N[S+](=O)([O-])c2ccc(N)cc2)no1 [Sulfamethoxazole] | > 46
COc1ccc(N[S+](=O)([O-])c2ccc(N)cc2)nn1 [Sulfamethoxypyridazine] | > 46
COc1cc(N[S+](=O)([O-])c2ccc(N)cc2)ncn1 [Sulfamonomethoxine] | > 46
Nc1ccc([S+](N)(=O)[O-])cc1 [Sulfanilamide] | > 46
Nc1ccc([S+](=O)([O-])Nc2ccnn2-c2ccccc2)cc1 [Sulfaphenazole] | > 46
Nc1ccc([S+](=O)([O-])Nc2ccccn2)cc1 [Sulfapyridine] | > 46
Nc1ccc([S+](=O)([O-])Nc2nccs2)cc1 [Sulfathiazole] | > 46
O=C1C(CC[S+]([O-])c2ccccc2)C(=O)N(c2ccccc2)N1c1ccccc1 (stereo not drawn) [Sulfinpyrazone] | > 46
Cc1cc(NS(=O)(=O)c2ccc(N)cc2)nc(C)n1 [Sulfisomidine] | > 46
Cc1noc(N[S+](=O)([O-])c2ccc(N)cc2)c1C [Sulfisoxazole diolamine] | > 46
Cc1noc(N[S+](=O)([O-])c2ccc(N)cc2)c1C [Sulfisoxazole] | > 46
CSc1ccc(/C=C2/C(C)=C(CC(=O)O)c3cc(F)ccc32)cc1 [Sulindac sulfide] | > 46
CC1=C(CC(=O)O)c2cc(F)ccc2/C1=C\c1ccc([S+](C)(=O)[O-])cc1 [Sulindac sulfone] | > 46
CC1=C(CC(=O)O)c2cc(F)ccc2/C1=C\c1ccc([S+](C)[O-])cc1 (stereo not drawn) [Sulindac] | > 46
COc1cc(O)c(C(=O)c2ccccc2)cc1[S+](=O)([O-])O [Sulisobenzone] | > 46
CS(=O)(=O)NC(=O)CCC/C=C\C[C@H]1C(=O)C[C@@H](O)[C@@H]1/C=C/[C@@H](O)COc1ccccc1 [Sulprostone] | > 46

Structure (SMILES) | IC50 of cell viability [µM]
CC1(C)S[C@@H]2[C@H](NC(=O)[C@H](N)c3ccccc3)C(=O)N2[C@@H]1C(=O)OCOC(=O)[C@@H]1N2C(=O)C[C@@H]2S([O-])([O-])C1(C)C [Sultamicillin tosylate] | > 46
CCN1CCCC1CNC(=O)c1cc([S+](=O)([O-])CC)ccc1OC (stereo not drawn) [Sultopride Hydrochloride] | > 46
CCN1CCC[C@@H]1CNC(=O)c1cc([S+](=O)([O-])CC)ccc1OC [Sultopride Hydrochloride] | > 46
CCN(CC)CCNC(=O)c1c(C)[nH]c(/C=C2\C(=O)Nc3ccc(F)cc32)c1C [Sunitinib malate] | > 46
C[C@@H](C(=O)O)c1ccc(C(=O)c2cccs2)cc1 [Suprofen] | > 46
CCCCC1(COC(=O)CCC(=O)O)C(=O)N(c2ccccc2)N(c2ccccc2)C1=O [Suxibuzone] | > 46
O=c1n(Cl)c(=O)n(Cl)c(=O)n1Cl [Symclosene] | > 46
CCOC(=O)Oc1c(OC)cc(C(=O)O[C@@H]2C[C@H]3CN4CCc5c([nH]c6cc(OC)ccc56)[C@@H]4C[C@@H]3[C@@H](C(=O)OC)[C@H]2OC)cc1OC [Syrosingopine] | > 46
C[S+](=O)([O-])Nc1cc2occ(NC=O)c(=O)c2cc1Oc1ccccc1 [T 614] | > 46
Nc1c2c(nc3ccccc13)CCCC2 [TACRINE] | > 46
CN1CC(=O)N2C(Cc3c([nH]c4ccccc34)[C@H]2c2ccc3c(c2)OCO3)C1=O (stereo partly drawn) [TADALAFIL] | > 46
CC(C)(C)NCC(O)COc1ccc(NC(=O)NC2CCCCC2)cc1 (stereo not drawn) [TALINOLOLUM] | > 46
O=C1OC(OC(=O)c2cccnc2Nc2cccc(C(F)(F)F)c2)c2ccccc21 (stereo not drawn) [TALNIFLUMATUM] | > 46
CN1C(=O)C[C@@H](C(=O)N[C@@H](Cc2c[nH]cn2)C(=O)N2CCC[C@H]2C(N)=O)NC1=O [TALTIRELIN HYDRATE] | > 46
CC1(C)CCC(C)(C)c2cc(NC(=O)c3ccc(C(=O)O)cc3)ccc21 [TAMIBAROTENE] | > 46
CCOc1ccccc1OCCN[C@H](C)Cc1ccc(OC)c([S+](N)(=O)[O-])c1 [TAMSULOSIN HYDROCHLORIDE] | > 46
NCC[S+](=O)([O-])O [TAURINE] | > 46
CCOC(=O)c1ccc(C#Cc2ccc3c(c2)C(C)(C)CCS3)nc1 [TAZAROTENE] | > 46
O=c1[nH]c(=O)n(C2CCCO2)cc1F (stereo not drawn) [TEGAFUR] | > 46
CCCCCNC(=N)N/N=C/c1c[nH]c2ccc(OC)cc12 [TEGASEROD] | > 46
Cc1cn([C@H]2C[C@H](O)[C@@H](CO)O2)c(=O)[nH]c1=O [TELBIVUDINUM] | > 46

Structure (SMILES) | IC50 of cell viability [µM]
Cc1scc2c1N(C(=O)CN1CCN(C)CC1)c1ccccc1NC2=O [TELENZEPINE] | > 46
CCCc1nc2c(C)cc(-c3nc4ccccc4n3C)cc2n1Cc1ccc(-c2ccccc2C(=O)O)cc1 [TELMISARTAN] | > 46
COP(=S)(OC)Oc1ccc(Sc2ccc(OP(=S)(OC)OC)cc2)cc1 [TEMEFOSUM] | > 46
CCOC(=O)C(CCc1ccccc1)NC1CSC(c2cccs2)CN(CC(=O)O)C1=O (stereo not drawn) [TEMOCAPRIL HYDROCHLORIDE] | > 46
Cn1nnc2c(C(N)=O)ncn2c1=O [TEMOZOLOMIDE] | > 46
CO[C@H]1C[C@@H]2CC[C@@H](C)[C@@](O)(O2)C(=O)C(=O)N2CCCC[C@H]2C(=O)O[C@H]([C@H](C)C[C@@H]2CC[C@@H](OC(=O)C(C)(CO)CO)[C@H](OC)C2)CC(=O)[C@H](C)C=C(C)[C@@H](O)[C@@H](OC)C(=O)[C@H](C)C[C@H](C)/C=C/C=C/C=C1C [TEMSIROLIMUS] | > 46
COc1ccc2[nH]c([S+]([O-])Cc3ncc(C)c(OC)c3C)nc2n1 (stereo not drawn) [TENATOPRAZOLE] | > 46
NC(=O)n1c(O)c(C(=O)c2cccs2)c2cc(Cl)ccc21 [TENIDAPUM] | > 46
c1csc(C2(N3CCCCC3)CCCCC2)c1 [TENOCYCLIDINUM] | > 46
CC(=O)CC/C=C(\C)CC/C=C(/C)CC/C=C(\C)CCC=C(C)C [TEPRENONE] | > 46
CC(C)(C)c1ccc(C(O)CCCN2CCC(C(O)(c3ccccc3)c3ccccc3)CC2)cc1 (stereo not drawn) [TERFENADINE] | > 46
NCCCC[C@H](NC(=O)[C@@H]1CCCN1C(=O)[C@@H]1CSSC[C@H](NC(=O)CNC(=O)CNC(=O)CN)C(=O)N[C@@H](Cc2ccc(O)cc2)C(=O)N[C@@H](Cc2ccccc2)C(=O)N[C@@H](CCC(N)=O)C(=O)N[C@@H](CC(N)=O)C(=O)N1)C(=O)NCC(N)=O [TERLIPRESSIN] | > 46
CCCCCCCCCC(=O)O[C@H]1CC[C@H]2[C@@H]3CCC4=CC(=O)CC[C@]4(C)[C@H]3CC[C@]12C [TESTOSTERONE DECANOATE] | > 46
CC(C)CCC(=O)OC1CCC2C3CCC4=CC(=O)CC[C@]4(C)C3CC[C@]12C (stereo partly drawn) [TESTOSTERONE ISOCAPROATE] | > 46
CC(C)=CC1C(C(=O)OCN2C(=O)\C3=C(\CCCC3)C2=O)C1(C)C (stereo not drawn) [TETRAMETHRINUM] | > 46
CN(C)C(=S)SC(=S)N(C)C [TETRAMETHYLTHIURAM MONOSULFIDE] | > 46
CNc1c2c(nn1C)CCCC2 [TETRIDAMINUM] | > 46
OC\1=C(O)\C(=O)\C(=C(O)/C1=O)O [TETROQUINONE] | > 46
COC1=CC=C2[C@H]3Cc4ccc(OC)c5c4[C@@]2(CCN3C)[C@H]1O5 [THEBAINE] | > 46
C/C(=C(/CCO)SS/C(CCO)=C(\C)N(C=O)Cc1cnc(C)nc1N)N(C=O)Cc1cnc(C)nc1N [THIAMINE DISULFIDE] | > 46
C[S+](=O)([O-])c1ccc([C@@H](O)[C@@H](COC(=O)CN)NC(=O)C(Cl)Cl)cc1 [THIAMPHENICOL AMINOACETATE HYDROCHLORIDE] | > 46

Source: the supplement of paper PMC3974653
